Results: publication PMC11255254, “ER-associated VAP27-1 and VAP27-3 proteins functionally link the lipid-binding ORP2A at the ER-chloroplast contact sites” (Nature Communications, 2024)

Biological target: T1, ORP2A (His-ORP2A; ORP2A-His) (Arabidopsis thaliana, UniProt Q940Y1)
T1 construct: full-length, His6 tag kept (N-terminal in pET16b; also ORP2A-His), E. coli BL21
T1 sequence (Q940Y1 1-721): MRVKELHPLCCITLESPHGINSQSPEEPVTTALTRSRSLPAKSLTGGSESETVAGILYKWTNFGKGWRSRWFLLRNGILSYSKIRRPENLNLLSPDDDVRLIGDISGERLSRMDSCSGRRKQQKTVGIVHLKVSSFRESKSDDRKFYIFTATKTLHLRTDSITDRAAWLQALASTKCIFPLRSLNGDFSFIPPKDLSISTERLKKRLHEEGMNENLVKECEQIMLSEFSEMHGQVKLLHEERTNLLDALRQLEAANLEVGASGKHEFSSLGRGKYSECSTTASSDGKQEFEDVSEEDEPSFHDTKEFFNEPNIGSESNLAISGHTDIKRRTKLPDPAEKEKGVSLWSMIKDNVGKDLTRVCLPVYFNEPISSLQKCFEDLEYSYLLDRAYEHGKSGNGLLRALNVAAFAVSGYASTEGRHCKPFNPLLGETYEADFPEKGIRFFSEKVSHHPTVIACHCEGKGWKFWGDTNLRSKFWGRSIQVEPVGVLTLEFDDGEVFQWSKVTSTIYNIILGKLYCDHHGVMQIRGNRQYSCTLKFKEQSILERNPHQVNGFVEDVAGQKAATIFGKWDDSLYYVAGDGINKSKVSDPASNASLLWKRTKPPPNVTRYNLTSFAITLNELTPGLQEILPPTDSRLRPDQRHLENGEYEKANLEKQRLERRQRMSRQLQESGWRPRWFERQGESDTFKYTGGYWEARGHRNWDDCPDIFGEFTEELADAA
Assay: protein-lipid overlay (fat blot), anti-His immunoblot
Type: binding
Details: 15 μg sterol spotted on nitrocellulose; overnight incubation in purified protein

Compound | protein-lipid overlay (fat blot), anti-His immunoblot
CC(C)[C@H](C)CC[C@@H](C)[C@H]1CC[C@H]2[C@@H]3CC=C4C[C@@H](O)CC[C@]4(C)[C@H]3CC[C@]12C [campesterol] | recombinant ORP2A-His shows that the protein interacts with β-sitosterol, stigmasterol and campesterol
CC[C@H](/C=C/[C@@H](C)[C@H]1CC[C@H]2[C@@H]3CC=C4C[C@@H](O)CC[C@]4(C)[C@H]3CC[C@]12C)C(C)C [stigmasterol] | recombinant ORP2A-His shows that the protein interacts with β-sitosterol, stigmasterol and campesterol
CC[C@H](CC[C@@H](C)[C@H]1CC[C@H]2[C@@H]3CC=C4C[C@@H](O)CC[C@]4(C)[C@H]3CC[C@]12C)C(C)C [β-sitosterol] | recombinant ORP2A-His shows that the protein interacts with β-sitosterol, stigmasterol and campesterol
